Assay results reported in publication PMC7139875, “4-Pyridinio-1,4-Dihydropyridines as Calcium Ion Transport Modulators: Antagonist, Agonist, and Dual Action” (Oxidative Medicine and Cellular Longevity, 2020).
Entries after “also recorded” stand apart in the source; their conditions may differ. Like-named read-outs stand apart in the source and are kept apart here.

Assays:
[1] = tested on: Ca2+ ion channel activity evoked by compound 4 in SH-SY5Y cells; experiment: Inhibitor analysis of Ca2+ ion channel activity evoked by compound 4; assay type: cell-based, human; settings: for Effect on Ca2+ ion channel activity in the presence of compound 4: inhibitor at concentrations from 4 to 100 μM; for inhibition at 100 µM / IC50: Homo sapiens; for inhibition at 100 µM: SH-SY5Y, 15 min preincubation; for IC50: 100 μM compound 4, SH-SY5Y cells, read-out: IC50 for inhibition of Ca2+ ion channel activity evoked by compound 4
Method: The intracellular free Ca^2+ concentration [Ca^2+]i was measured in confluent monolayers of SH-SY5Y or […] cells with the Ca^2+-sensitive fluorescent indicator Fluo-4 NW according to the instruction (Fluo-4 NW Calcium Assay Kit, Thermo Fisher Scientific, cat. No. F36206) (as referenced by […] al.. Changes in [Ca^2+]i were measured from the fluorescence emitted at 516 nm due to alternate excitation at 494 nm using the microplate reader Tecan Infinite M1000 (Austria). Intracellular Ca^2+ concentration was calculated from a standard curve with known amounts of free Ca^2+ using the standard Ca^2+-EGTA buffering system (Calcium Calibration Buffer Kit, cat. No.C-3008, Thermo Fisher Scientific). […] The commercial calcium agonist compound Bay […] was used as the reference compound.

[2] = tested on: carbachol-dependent mobilization of intracellular Ca2+ in SH-SY5Y cells; experiment: Antagonist effect on carbachol-evoked intracellular Ca2+ mobilization (Fluo-4 NW); assay type: cell-based, human
Method: (§1) The intracellular free Ca^2+ concentration [Ca^2+]i was measured in confluent monolayers of SH-SY5Y or A7R5 cells with the Ca^2+-sensitive fluorescent indicator Fluo-4 NW according to the instruction (Fluo-4 NW Calcium Assay Kit, Thermo Fisher Scientific, cat. No. F36206) (as referenced by Vilskersts et al..
The investigation of Ca^2+ channel blocking activity of DHP derivatives was based on the effect of DHP on carbachol evoked intracellular Ca^2+ mobilization in human neuroblastoma cells.
The cells were preincubated in the dark for 15 minutes with the tested compounds at concentrations ranging from 0.16 to 100 μM. The application of carbachol (100 nM) to […] NW loaded SH-SY5Y cells stimulated a classic “biphasic” response. The well-known 3rd generation calcium channel inhibitor amlodipine, which is also claimed to act as antioxidant and free radical scavenger, was used as the positive control (at the concentration range from 20 to 100 μM).
(§2) Changes in [Ca^2+]i were measured from the fluorescence emitted at 516 nm due to alternate excitation at 494 nm using the microplate reader Tecan Infinite M1000 (Austria). Intracellular Ca^2+ concentration was calculated from a standard curve with known amounts of free Ca^2+ using the standard Ca^2+-EGTA buffering system (Calcium Calibration Buffer Kit, cat. No.C-3008, Thermo Fisher Scientific).
The IC50 values for the tested compounds were calculated using GraphPad Prism 4.0 software.

[Ca2+]i in SH-SY5Y cells = Ca2+ channel agonist activity, [Ca2+]i in Fluo-4 NW-loaded cells; assay type: cell-based, human; settings: for Agonist activity (RFU, 100 μM): compound at 100 μM
Method: as §1
(§3) For the investigation of Ca^2+ channel agonist activity of the DHP compound, 4 […] NW loaded SH-SY5Y or A7R5 cells were stimulated by the addition of compound 4 at the concentration range from 4 to 100 μM. The well-known calcium channel agonist Bay K8644 was used as the positive control (at the concentration range from 4 to 100 μM).
as §2
(§4) In some experiments, […] NW loaded cells were washed and placed in normal Ca^2+-free HEPES-buffered replacement medium. In Ca^2+ restoration experiments, Ca^2+ was initially absent from the medium and was restored to 1 mM after 870 s of stimulation with compound 4.

[3] = Electrochemical oxidation potentials by cyclic voltammetry; assay type: physicochemical; settings: glassy carbon electrode, vs Ag/Ag+, acetonitrile, 0.1 M TBABF4
Method: The cyclic voltammetry experiments were carried out on the PARSTAT 2273 electrochemical system. A stationary glassy carbon disk electrode (d = 0.8 mm) served as the working electrode, while the counter electrode was a Pt wire. The oxidation potentials were measured relative to Ag/Ag^+ reference electrode. Acetonitrile was dried over P2O5 and distilled; the distillate was stored over CaH2 and redistilled just before use. Recrystallized tetrabutylammonium tetrafluoroborate (TBABF4) was used as a supporting electrolyte at 0.1 M concentration.

isolated rat aortic ring = experiment: Isolated rat aortic ring model, KCl precontracted denuded rings
Method: The experimental animal (one rat) was anesthetized with pentobarbital sodium (60 mg/kg i.p.). Once deep anesthesia was achieved, the thoracic aorta was dissected, placed in ice cold Krebs-Henseleit (K-H) buffer (content in mM: NaCl 118, KCl 4.7, CaCl2 2.5, MgCl2 1.64, NaHCO3 24.88, KH2PO4 1.18, glucose 10.0, sodium pyruvate 5.0, and disodium salt of ethylenediaminetetraacetic acid 0.05), cleaned from connective and fatty tissues, and cut into 3-4 mm long rings. Endothelium was mechanically scraped off with the tips of forceps, and the aortic rings were mounted between two stainless steel hooks attached to an isometric force transducer in 20 ml organ bath in K-H buffer bubbled with 95% O2 and 5% CO2 at 37°C (one separate aortic ring was used for each tested compound). Passive tension was adjusted to approximately 40 mN over a 60 min equilibration period. The experiment was started after the equilibration period by adding KCl solution to obtain a concentration of 50 mM. Addition of KCl induced contraction of the aortic rings, and a plateau of contraction was reached about […]. Thereafter, the tested compound solutions in dimethyl sulfoxide were added to the aortic rings in order to obtain the final concentrations in the range of 10^−10-10^−5 M. Changes in the tension were recorded using LabChart Pro software from ADInstruments (https://www.adinstruments.com/products/labchart/labchart-for-research). The EC50 values of the tested compounds were calculated using Prism 3.0 software from GraphPad (GraphPad Software Inc., USA) (https://www.graphpad.com/scientific-software/prism/). The experimental procedures involving experimental animals were carried out in accordance with the guidelines of the European Community, LR local laws and policies, and were approved by the Latvian Animal Protection Ethical Committee, the Food and Veterinary Service, Riga, Latvia.

[Ca2+]i in A7R5 cells = Ca2+ channel agonist activity in A7R5 aorta smooth muscle cells; assay type: cell-based, rat; settings: 20 to 100 μM
Method: as §1, §3, §2

[4] = tested on: Ca2+ response induced by compound 4 in SH-SY5Y cells (RyRs); experiment: Role of RyRs in Ca2+ response induced by compound 4 (Ca2+-free medium); assay type: cell-based, human
Method: as §4
Where indicated, the cells were preincubated with inhibitors of Ca^2+ signaling proteins (amlodipine, nifedipine, nicardipine, mecamylamine, atropine, or 2-aminoethoxydiphenyl borate (2-APB) in dose 100 μM; procaine in dose 10 mM for 15 min, or with 5 μM thapsigargin for 10 min, or with 100 μM ruthenium red for 5 min), followed by stimulation with 100 μM of compound 4. The commercial calcium agonist compound Bay K8644 was used as the reference compound.

[5] = SH-SY5Y cells, 100 nM carbachol, 15 min preincubation
[6] = Homo sapiens, SH-SY5Y cells, 100 nM carbachol, 15 min preincubation, read-out: Antagonist activity (IC50)
[7] = inhibitor 100 μM, 100 μM compound 4
[8] = inhibitor 4 μM, 100 μM compound 4
[9] = inhibitor 20 μM, 100 μM compound 4

With `CN1[C@@H]2CC[C@H]1C[C@@H](OC(=O)C(CO)c1ccccc1)C2` (stereo partly drawn) [Atropine] the “Effect on Ca2+ ion channel activity in the presence of compound 4” value [1] was “no effect”.
With `COC(=O)C1=C(C)NC(C)=C([N+](=O)[O-])C1c1ccccc1C(F)(F)F` (stereo not drawn) [Bay K8644] the “Antagonist activity (IC50)” value [2, 5] was “No effect” and the “Agonist activity (RFU, 100 μM)” value ([Ca2+]i in SH-SY5Y cells) was 1553 ± 115 RFU.
With `CCOC(=O)COC(=O)C1=C(C)NC(C)=C(C(=O)OCC(=O)OCC)C1c1ccc[n+](CC(=O)c2ccc([N+](=O)[O-])cc2)c1` [Compound 1] the IC50 [2, 6] was 100 ± 12 µM and the “Agonist activity (RFU, 100 μM)” value ([Ca2+]i in SH-SY5Y cells) was “No effect”.
With `NCCOB(c1ccccc1)c1ccccc1` [Compound 2-APB, 2-aminoethoxydiphenyl borate] the “Effect on Ca2+ channel response induced by compound 4” value ([1]; pretreatment for 15 min) was “no effect”.
With `CCOC(=O)CC[n+]1cccc(C2C(C(=O)OCC(=O)OCC)=C(C)NC(C)=C2C(=O)OCC(=O)OCC)c1` [Compound 2] the “Antagonist activity (IC50)” value [2, 5] was “lacked any activity; also recorded: no activity; also recorded: No effect”, the “Agonist activity (RFU, 100 μM)” value ([Ca2+]i in SH-SY5Y cells) was “No effect” and the Electrooxidation potential [3] was 1.69 V.
In the case of `CCOC(=O)COC(=O)C1=C(C)NC(C)=C(C(=O)OCC(=O)OCC)C1c1ccc[n+](CC(=O)c2ccccc2)c1` [Compound 3], the IC50 [2, 6] is reported as 3.6 ± 0.3 µM, the “Agonist activity (RFU, 100 μM)” value ([Ca2+]i in SH-SY5Y cells) is reported as “No effect” and the Electrooxidation potential [3] is reported as 1.68 V.
In the case of `CCOC(=O)COC(=O)C1=C(C)NC(C)=C(C(=O)OCC(=O)OCC)C1c1ccc[n+](C(C)C(=O)c2ccc(OCc3ccccc3)cc2)c1` (stereo not drawn) [Compound 4], the inhibition at 8 µM ([2]; Homo sapiens, SH-SY5Y, compound at 0,8 μM, read-out: Inhibition (%) of Ca2+ channels activated with carbachol) is reported as 4 ± 10%, the inhibition at 16 µM ([2]; Homo sapiens, SH-SY5Y, compound at 0,16 μM, read-out: Inhibition (%) of Ca2+ channels activated with carbachol) is reported as -16 ± 10% and the inhibition at 4 µM ([2]; Homo sapiens, SH-SY5Y, compound at 4 μM, read-out: Inhibition (%) of Ca2+ channels activated with carbachol) is reported as 11 ± 12%. The inhibition at 20 µM ([2]; Homo sapiens, SH-SY5Y, compound at 20 μM, read-out: Inhibition (%) of Ca2+ channels activated with carbachol) was 71 ± 9%, the IC50 [2, 6] was 12 ± 2 µM and the IC50 ([2]; Homo sapiens, Table 5, SH-SY5Y cells, read-out: IC50, antagonist effect on Ca2+ channels activated with carbachol) was 12 ± 2 µM. The “Decrease of intracellular [Ca2+]i signal in the absence of extracellular Ca2+” value ([Ca2+]i in SH-SY5Y cells; 100 μM compound, compared to presence of extracellular Ca2+) was 50%, the “Agonist activity (RFU, 100 μM)” value ([Ca2+]i in SH-SY5Y cells) was 14425 ± 1072 RFU and the EC50 (isolated rat aortic ring; KCl precontracted denuded rat aortic rings, read-out: Calcium channel blocking activity EC50) was 0.691 ± 0.167 µM. The “Calcium channel blocking activity relative to amlodipine (times weaker)” value (isolated rat aortic ring; isolated rat aortic ring model) was “about 50 times”, the “Agonist effect (contractions of aorta rings)” value (isolated rat aortic ring; isolated rat aortic rings) was “no agonist effect” and the Electrooxidation potential [3] was 1.68 V. The “Ca2+ ion channel agonist activity” value ([Ca2+]i in A7R5 cells) was “dose-dependent agonist activity”.
For `CCOC(=O)COC(=O)C1=C(C)NC(C)=C(C(=O)OCC(=O)OCC)C1c1cc[n+](CC(=O)c2ccccc2)cc1` [Compound 5], the “Antagonist activity (IC50)” value [2, 5] was “lacked any activity; also recorded: no activity; also recorded: No effect”, the “Agonist activity (RFU, 100 μM)” value ([Ca2+]i in SH-SY5Y cells) was “No effect” and the Electrooxidation potential [3] was 1.70 V.
For `CCOC(=O)COC(=O)C1=C(C)NC(C)=C(C(=O)OCC(=O)OCC)C1c1ccc[n+](CC(=O)c2ccc(OC)cc2)c1` [Compound 6], the IC50 [2, 6] was 100 ± 9 µM, the “Antagonist activity relative to amlodipine (times lower)” value ([2]; SH-SY5Y cells) was “approximately nine times lower” and the “Agonist activity (RFU, 100 μM)” value ([Ca2+]i in SH-SY5Y cells) was “No effect”. For the same compound, the Electrooxidation potential [3] was 1.78 V.
With `CNC1(C)C2CCC(C2)C1(C)C` (stereo not drawn) [Mecamylamine] the “Effect on Ca2+ ion channel activity in the presence of compound 4” value [1] was “no effect”.
With `COC(=O)C1=C(C)NC(C)=C(C(=O)OCCN(C)Cc2ccccc2)C1c1cccc([N+](=O)[O-])c1` (stereo not drawn) [Nicardipine] the inhibition at 100 µM [1, 7] was 33 ± 8%, the IC50 [1] was over 100 µM and the “Inhibition (%) of Ca2+ ion channel activity evoked by compound 4” value (from here on “Inhibition (%)”) [1, 8] was 10 ± 6%. The “Inhibition (%)” value [1, 9] was 11 ± 5%.
With `COC(=O)C1=C(C)NC(C)=C(C(=O)OC)C1c1ccccc1[N+](=O)[O-]` [Nifedipine] the inhibition at 100 µM [1, 7] was 42 ± 5%, the IC50 [1] was over 100 µM and the “Inhibition (%)” value [1, 8] was 7 ± 8%. The “Inhibition (%)” value [1, 9] was 16 ± 10% and the “Phase of the compound 4 response that is inhibited” value [1, 7] was “inhibited both phases”.
Compound `CCN(CC)CCOC(=O)c1ccc(N)cc1` [Procaine] has an IC50 ([4]; Homo sapiens, SH-SY5Y, Ca2+-free medium, read-out: IC50 for inhibition of Ca2+ response induced by compound 4) of 61 ± 9 µM, an inhibition at 6.25 µM ([4]; Homo sapiens, SH-SY5Y, inhibitor 6.25 μM, Ca2+-free medium) of 0% and an inhibition at 12.5 µM ([4]; Homo sapiens, SH-SY5Y, inhibitor 12.5 μM, Ca2+-free medium) of 5 ± 9%. The inhibition at 25 µM ([4]; Homo sapiens, SH-SY5Y, inhibitor 25 μM, Ca2+-free medium) was 0%, the inhibition at 50 µM ([4]; Homo sapiens, SH-SY5Y, inhibitor 50 μM, Ca2+-free medium) was 18 ± 6% and the inhibition at 100 µM ([4]; Homo sapiens, SH-SY5Y, inhibitor 100 μM, Ca2+-free medium) was 98 ± 5%. For the same compound, the “Ca2+ response induced by compound 4 after preincubation with inhibitor” value ([4]; inhibitor 10 mM) was “completely blocked; also recorded: absent”.
For `N.N.N.N.N.N.N.N.N.N.N.N.N.N.[Cl-].[Cl-].[Cl-].[Cl-].[Cl-].[Cl-].[O-2].[O-2].[Ru+3].[Ru+3].[Ru+4]` [Ruthenium, Ruthenium red], the “Ca2+ response induced by compound 4 after preincubation with inhibitor” value ([4]; inhibitor 100 μM) was “absent”.
With `C/C=C(/C)C(=O)O[C@H]1C(C)=C2[C@H]([C@@H]1OC(=O)CCCCCCC)[C@@](C)(OC(C)=O)C[C@H](OC(=O)CCC)[C@@]1(O)[C@H]2OC(=O)[C@@]1(C)O` [thapsigargin] the “Influence on Ca2+ ion increase induced by compound 4” value ([1]; 5 μM inhibitor, Ca2+-free medium) was “no influence”.
